Test results taken from publication PMC10930102 (Journal of Enzyme Inhibition and Medicinal Chemistry, 2024).
Entries after “also recorded” stand apart in the source; their conditions may differ.

Legend:
[1] = target: T1, ALK (Homo sapiens, UniProt Q9UM73); assay: ALK in vitro enzymatic assay (radioisotope P81 filter-binding, Reaction Biology); format: biochemical; details: 20 μM ATP; ten-dose IC50 mode, duplicate, average
T1 construct: purchased Reaction Biology Corporation

[2] = target: T2, HDAC1 (Homo sapiens, UniProt Q13547); assay: HDAC inhibition assay (fluorogenic peptide, Reaction Biology); format: biochemical; details: tested once, ten-dose starting at 30 µM
T2 construct: purchased Reaction Biology Corporation; host or cells: baculovirus expression system in SF9 cells

[3] = target: T3, HDAC8 (Homo sapiens, UniProt Q9BY41); assay: HDAC inhibition assay (fluorogenic diacylpeptide, Reaction Biology); format: biochemical; details: tested once, ten-dose starting at 30 µM
T3 construct: purchased Reaction Biology Corporation; host or cells: baculovirus expression system in SF9 cells
T3 sequence (Q9BY41 1-377): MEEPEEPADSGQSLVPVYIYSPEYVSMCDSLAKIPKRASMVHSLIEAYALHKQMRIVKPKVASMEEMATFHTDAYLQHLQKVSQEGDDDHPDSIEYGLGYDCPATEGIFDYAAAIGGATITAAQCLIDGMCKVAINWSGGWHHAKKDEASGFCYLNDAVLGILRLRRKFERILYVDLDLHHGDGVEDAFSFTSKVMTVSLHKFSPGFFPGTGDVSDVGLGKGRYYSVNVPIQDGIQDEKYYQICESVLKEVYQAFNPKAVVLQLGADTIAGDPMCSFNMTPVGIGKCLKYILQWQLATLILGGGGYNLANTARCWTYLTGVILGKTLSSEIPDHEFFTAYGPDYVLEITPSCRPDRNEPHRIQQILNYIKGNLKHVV

[4] = target: T4, HDAC11 (Homo sapiens, UniProt Q96DB2); assay: HDAC inhibition assay (fluorogenic peptide, Reaction Biology); format: biochemical; details: tested once, ten-dose starting at 30 µM
T4 construct: purchased Reaction Biology Corporation; host or cells: baculovirus expression system in SF9 cells
T4 sequence (Q96DB2 1-347): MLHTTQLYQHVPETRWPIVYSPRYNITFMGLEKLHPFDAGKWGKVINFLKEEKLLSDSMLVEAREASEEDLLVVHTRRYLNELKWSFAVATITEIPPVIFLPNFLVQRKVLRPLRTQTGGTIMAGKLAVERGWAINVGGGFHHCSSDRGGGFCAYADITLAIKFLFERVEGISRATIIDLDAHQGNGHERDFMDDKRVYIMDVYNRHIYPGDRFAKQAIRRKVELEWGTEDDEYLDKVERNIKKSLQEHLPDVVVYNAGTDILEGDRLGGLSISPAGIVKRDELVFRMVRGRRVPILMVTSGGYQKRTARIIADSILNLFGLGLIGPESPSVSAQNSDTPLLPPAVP

[5] = test system: HepG2; assay: SRB antiproliferation assay; format: cell-based; details: Homo sapiens, 48 h, read-out: Antiproliferative activity (IC50) HepG2
[6] = test system: U87MG; assay: SRB antiproliferation assay; format: cell-based; details: Homo sapiens, U-87 MG, 48 h, read-out: Antiproliferative activity (IC50) U87MG
[7] = target: T5, EGFR (Homo sapiens, UniProt P00533); assay: RTK in vitro enzymatic assay; format: biochemical; details: 20 μM ATP
T5 construct: purchased Reaction Biology Corporation

[8] = target: T6, ALK C1156Y (Homo sapiens, UniProt Q9UM73, C1156Y); assay: ALK mutant in vitro enzymatic assay; format: biochemical; details: 20 μM ATP
T6 construct: purchased Reaction Biology Corporation

[9] = target: T7, ALK L1196M (Homo sapiens, UniProt Q9UM73, L1196M); assay: ALK mutant in vitro enzymatic assay; format: biochemical; details: 20 μM ATP
T7 construct: purchased Reaction Biology Corporation

[10] = target: T8, ALK F1174L (Homo sapiens, UniProt Q9UM73, F1174L); assay: ALK mutant in vitro enzymatic assay; format: biochemical; details: 20 μM ATP
T8 construct: purchased Reaction Biology Corporation

[11] = target: T9, ALK G1202R (Homo sapiens, UniProt Q9UM73, G1202R); assay: ALK mutant in vitro enzymatic assay; format: biochemical; details: 20 μM ATP
T9 construct: purchased Reaction Biology Corporation

[12] = test system: human A549 tumour xenografts; assay: Human A549 tumour xenograft model; format: in vivo
Method: […]. Xenografts were implanted by subcutaneous injection of A549 cells and then treatment with various dosages of 3b (0, 5, 10, 20 mg/kg by intraperitoneal injection once daily for 21 days) was initiated when tumour size was 10–20 mm^3. […] Moreover, tumour suppression continued for an additional 10 days after treatment was suspended.
The procedure for establishing tumour xenografts and the dosing of 3b were carried out in accordance with the National Taiwan University College of Medicine Laboratory Animal Centre ([…]) care and use committee. Female nude mice (BALB/cAnN.Cg-Foxn1nu/CrlNarl, 6–8 weeks old) were purchased from the National Laboratory Animal Centre (Taiwan). Mice were implanted subcutaneously in the right flank with 1 × 10^7 A549 cells (human NSCLC, in 1:1 PBS/Geltrex, 200 μL). Treatments were initiated when tumours were 10–20 mm^3 and continued for 21 consecutive days. Mice were randomly assigned to cohorts (n = 5 per group). Compound 3b (10 mg/kg) or vehicle (PBS + 5% DMSO + 10% Pharmasolve) was administered once daily (qd) via intraperitoneal (i.p.) injection. Tumour volume and body weight were assessed daily for 31 days from initiation of treatment. Calliper measurements of tumours were converted to mean tumour volume using the formula: 0.5 × (length × width[2]).

[13] = target: T10, CYP1A2 (Homo sapiens, UniProt P05177); assay: CYP450 inhibition assay; format: in vitro ADME; details: human recombinant enzyme; read-out: IC50 CYP1A2
T10 construct: purchased Reaction Biology Corporation; host or cells: CYP cDNA baculovirus expression systems

[14] = target: T11, CYP2C9 (Homo sapiens, UniProt P11712); assay: CYP450 inhibition assay; format: in vitro ADME; details: human recombinant enzyme
T11 construct: purchased Reaction Biology Corporation; host or cells: CYP cDNA baculovirus expression systems

[15] = target: T12, CYP3A4 (Homo sapiens, UniProt P08684); assay: CYP450 inhibition assay; format: in vitro ADME; details: human recombinant enzyme
T12 construct: purchased Reaction Biology Corporation; host or cells: CYP cDNA baculovirus expression systems
T12 sequence (P08684 whole entry): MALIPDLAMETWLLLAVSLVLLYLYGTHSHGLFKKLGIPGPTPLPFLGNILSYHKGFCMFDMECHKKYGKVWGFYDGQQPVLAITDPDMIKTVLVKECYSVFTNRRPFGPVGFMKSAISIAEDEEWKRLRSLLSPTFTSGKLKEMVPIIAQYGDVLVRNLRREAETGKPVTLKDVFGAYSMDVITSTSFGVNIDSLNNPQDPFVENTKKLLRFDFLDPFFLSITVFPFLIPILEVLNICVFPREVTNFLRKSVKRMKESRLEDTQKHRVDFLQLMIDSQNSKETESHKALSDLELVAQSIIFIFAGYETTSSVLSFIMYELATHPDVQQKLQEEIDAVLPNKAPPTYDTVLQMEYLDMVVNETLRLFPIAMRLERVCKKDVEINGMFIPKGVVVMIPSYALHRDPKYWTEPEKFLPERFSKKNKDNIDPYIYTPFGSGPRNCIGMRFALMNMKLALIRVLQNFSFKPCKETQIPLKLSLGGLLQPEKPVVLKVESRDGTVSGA

T10 sequence (P05177 whole entry): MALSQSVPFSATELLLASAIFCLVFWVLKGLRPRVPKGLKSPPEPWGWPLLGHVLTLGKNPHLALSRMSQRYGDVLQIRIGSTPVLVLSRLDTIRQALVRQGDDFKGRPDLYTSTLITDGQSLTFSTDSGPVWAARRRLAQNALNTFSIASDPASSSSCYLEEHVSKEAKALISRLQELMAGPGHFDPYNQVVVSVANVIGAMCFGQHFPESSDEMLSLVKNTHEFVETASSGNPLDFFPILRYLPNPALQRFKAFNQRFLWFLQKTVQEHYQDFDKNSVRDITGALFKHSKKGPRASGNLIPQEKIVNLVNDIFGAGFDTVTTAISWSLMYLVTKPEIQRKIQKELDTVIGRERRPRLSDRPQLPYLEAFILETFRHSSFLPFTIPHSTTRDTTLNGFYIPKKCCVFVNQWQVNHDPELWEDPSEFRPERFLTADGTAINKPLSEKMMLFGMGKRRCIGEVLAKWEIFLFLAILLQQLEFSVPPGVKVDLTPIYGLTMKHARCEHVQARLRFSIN
T2 sequence (Q13547 whole entry): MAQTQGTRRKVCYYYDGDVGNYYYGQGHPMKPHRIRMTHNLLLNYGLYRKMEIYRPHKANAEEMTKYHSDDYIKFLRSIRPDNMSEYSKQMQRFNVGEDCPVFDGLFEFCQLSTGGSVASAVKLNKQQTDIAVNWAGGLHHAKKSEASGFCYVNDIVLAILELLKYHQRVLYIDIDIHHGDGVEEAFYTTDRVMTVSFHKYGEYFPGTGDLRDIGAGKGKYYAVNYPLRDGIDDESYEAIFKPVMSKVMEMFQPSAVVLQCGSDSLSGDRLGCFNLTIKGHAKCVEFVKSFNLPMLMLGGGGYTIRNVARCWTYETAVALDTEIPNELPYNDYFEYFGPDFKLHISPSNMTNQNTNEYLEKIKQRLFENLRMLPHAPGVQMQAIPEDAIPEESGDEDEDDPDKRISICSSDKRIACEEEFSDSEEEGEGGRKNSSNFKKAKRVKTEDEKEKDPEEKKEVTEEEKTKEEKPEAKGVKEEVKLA
T7 sequence (Q9UM73 19-1620 L1196M): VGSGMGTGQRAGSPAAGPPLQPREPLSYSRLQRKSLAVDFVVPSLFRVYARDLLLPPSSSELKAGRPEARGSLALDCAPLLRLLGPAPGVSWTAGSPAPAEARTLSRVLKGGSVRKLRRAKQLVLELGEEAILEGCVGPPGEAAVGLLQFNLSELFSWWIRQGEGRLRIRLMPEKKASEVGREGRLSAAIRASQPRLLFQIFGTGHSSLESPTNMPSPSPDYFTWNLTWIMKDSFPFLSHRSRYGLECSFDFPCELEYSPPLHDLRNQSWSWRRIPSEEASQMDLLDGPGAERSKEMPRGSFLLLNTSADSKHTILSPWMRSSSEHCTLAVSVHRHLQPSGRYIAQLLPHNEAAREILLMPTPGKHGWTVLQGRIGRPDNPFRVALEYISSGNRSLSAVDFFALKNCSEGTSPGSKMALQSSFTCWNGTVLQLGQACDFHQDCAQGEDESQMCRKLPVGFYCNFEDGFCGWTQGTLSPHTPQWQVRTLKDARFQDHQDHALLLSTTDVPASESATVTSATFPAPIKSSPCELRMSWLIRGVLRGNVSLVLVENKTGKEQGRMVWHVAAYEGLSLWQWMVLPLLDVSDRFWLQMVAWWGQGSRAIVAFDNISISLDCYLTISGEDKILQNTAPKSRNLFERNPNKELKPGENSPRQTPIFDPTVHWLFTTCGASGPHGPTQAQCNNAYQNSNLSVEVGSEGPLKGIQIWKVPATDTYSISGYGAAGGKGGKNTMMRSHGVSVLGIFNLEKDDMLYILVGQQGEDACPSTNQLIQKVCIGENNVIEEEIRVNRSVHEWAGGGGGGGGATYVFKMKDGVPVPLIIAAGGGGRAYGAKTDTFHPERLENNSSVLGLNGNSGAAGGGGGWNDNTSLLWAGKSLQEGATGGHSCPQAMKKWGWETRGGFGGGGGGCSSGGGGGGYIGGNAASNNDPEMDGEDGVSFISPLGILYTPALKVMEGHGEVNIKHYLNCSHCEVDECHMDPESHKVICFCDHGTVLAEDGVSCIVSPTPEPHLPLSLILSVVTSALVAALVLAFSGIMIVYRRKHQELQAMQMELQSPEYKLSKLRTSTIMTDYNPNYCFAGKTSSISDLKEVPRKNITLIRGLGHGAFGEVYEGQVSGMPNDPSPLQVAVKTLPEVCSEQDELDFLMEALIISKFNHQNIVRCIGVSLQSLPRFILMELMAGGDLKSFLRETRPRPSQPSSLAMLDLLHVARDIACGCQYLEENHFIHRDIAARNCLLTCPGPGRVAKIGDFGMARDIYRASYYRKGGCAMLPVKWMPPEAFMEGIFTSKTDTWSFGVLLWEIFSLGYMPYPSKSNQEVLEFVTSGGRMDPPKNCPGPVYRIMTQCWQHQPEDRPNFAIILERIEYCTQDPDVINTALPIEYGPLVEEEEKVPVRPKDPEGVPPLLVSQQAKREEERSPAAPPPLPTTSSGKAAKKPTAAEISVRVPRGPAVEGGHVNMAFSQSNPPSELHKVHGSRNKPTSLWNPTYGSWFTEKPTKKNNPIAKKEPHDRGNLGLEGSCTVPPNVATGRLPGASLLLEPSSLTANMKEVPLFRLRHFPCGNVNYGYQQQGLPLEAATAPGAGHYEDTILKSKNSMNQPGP
T6 sequence (Q9UM73 19-1620 C1156Y): as the sequence (Q9UM73 19-1620 L1196M) above, with C1138Y, M1178L counted along it
T1 sequence (Q9UM73 19-1620): as the sequence (Q9UM73 19-1620 L1196M) above, with M1178L counted along it
T8 sequence (Q9UM73 19-1620 F1174L): as the sequence (Q9UM73 19-1620 L1196M) above, with F1156L, M1178L counted along it
T9 sequence (Q9UM73 19-1620 G1202R): as the sequence (Q9UM73 19-1620 L1196M) above, with M1178L, G1184R counted along it
T5 sequence (P00533 25-1210): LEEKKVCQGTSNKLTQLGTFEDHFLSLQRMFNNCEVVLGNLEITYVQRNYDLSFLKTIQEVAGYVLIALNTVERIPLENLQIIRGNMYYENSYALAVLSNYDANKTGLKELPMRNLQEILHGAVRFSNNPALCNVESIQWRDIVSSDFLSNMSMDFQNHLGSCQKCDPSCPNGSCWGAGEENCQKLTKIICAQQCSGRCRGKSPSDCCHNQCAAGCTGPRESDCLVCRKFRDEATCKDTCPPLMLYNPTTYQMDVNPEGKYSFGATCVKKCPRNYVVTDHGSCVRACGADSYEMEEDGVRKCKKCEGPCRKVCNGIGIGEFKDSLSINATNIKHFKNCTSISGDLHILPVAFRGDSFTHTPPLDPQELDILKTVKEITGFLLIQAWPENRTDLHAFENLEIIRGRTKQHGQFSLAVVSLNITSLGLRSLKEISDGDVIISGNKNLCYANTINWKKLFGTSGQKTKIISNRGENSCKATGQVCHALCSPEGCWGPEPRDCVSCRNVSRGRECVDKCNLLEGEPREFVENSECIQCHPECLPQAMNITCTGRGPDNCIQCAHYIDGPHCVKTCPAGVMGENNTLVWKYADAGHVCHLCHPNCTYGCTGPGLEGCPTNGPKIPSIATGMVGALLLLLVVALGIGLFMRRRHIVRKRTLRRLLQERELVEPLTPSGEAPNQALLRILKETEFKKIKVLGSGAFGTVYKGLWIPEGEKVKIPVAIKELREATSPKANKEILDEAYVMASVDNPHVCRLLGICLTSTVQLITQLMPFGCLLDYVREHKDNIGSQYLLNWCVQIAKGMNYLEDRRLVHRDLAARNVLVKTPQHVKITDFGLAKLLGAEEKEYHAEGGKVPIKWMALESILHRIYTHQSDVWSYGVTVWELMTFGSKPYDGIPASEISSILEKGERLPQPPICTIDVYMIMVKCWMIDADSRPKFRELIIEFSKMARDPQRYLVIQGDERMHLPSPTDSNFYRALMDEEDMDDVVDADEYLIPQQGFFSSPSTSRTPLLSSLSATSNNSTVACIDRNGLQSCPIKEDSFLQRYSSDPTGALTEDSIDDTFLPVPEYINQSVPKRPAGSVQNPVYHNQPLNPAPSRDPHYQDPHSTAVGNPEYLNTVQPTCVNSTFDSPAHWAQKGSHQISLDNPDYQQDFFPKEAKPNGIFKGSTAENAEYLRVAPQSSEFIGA
T11 sequence (P11712 whole entry): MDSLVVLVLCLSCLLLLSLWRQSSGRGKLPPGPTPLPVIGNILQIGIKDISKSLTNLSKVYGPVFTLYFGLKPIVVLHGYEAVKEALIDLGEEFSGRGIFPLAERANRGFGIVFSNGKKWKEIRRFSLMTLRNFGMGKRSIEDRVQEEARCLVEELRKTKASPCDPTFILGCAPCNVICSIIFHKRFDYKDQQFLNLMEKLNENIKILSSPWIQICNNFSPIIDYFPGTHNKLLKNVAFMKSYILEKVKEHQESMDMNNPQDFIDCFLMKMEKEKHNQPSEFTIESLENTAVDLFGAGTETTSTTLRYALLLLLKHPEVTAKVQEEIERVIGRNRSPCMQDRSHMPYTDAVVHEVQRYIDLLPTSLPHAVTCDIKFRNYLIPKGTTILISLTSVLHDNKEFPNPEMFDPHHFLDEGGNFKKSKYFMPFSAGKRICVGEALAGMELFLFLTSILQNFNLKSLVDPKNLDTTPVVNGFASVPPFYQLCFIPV

Compound `CC(C)NC(=O)C1CCC(n2c(=NC(=O)c3ccccc3)[nH]c3cc(C=CC(=O)NO)ccc32)CC1` [Compound 3b, (E)-N-(5-((E)-3-(Hydroxyamino)-3-oxoprop-1-en-1-yl)-1-((1S,4S)-4-(isopropylcarbamoyl)cyclohexyl)-1H-benzo[d]imidazol-2(3H)-ylidene)benzamide] has an IC50 [1] of 16 nM, an IC50 [2] of 10800 nM and an IC50 [3] of 1690 nM. For the same compound, the IC50 [4] was 16600 nM, the IC50 [5] was 590 ± 90 nM and the IC50 [6] was 620 ± 100 nM. For the same compound, the IC50 [7] was greater than 10000 nM, the IC50 [8] was 9.7 nM and the IC50 [9] was 4.9 nM. For the same compound, the IC50 [10] was 59 nM, the IC50 [11] was 51 nM and the “effect on tumour volume” value ([12]; 5 mg/kg i.p. once daily for 21 days) was “no significant effect”. The “decrease in mean tumour volume” value ([12]; 10 mg/kg i.p. once daily for 21 days, day 21 of treatment) was 68%, the “decrease in mean tumour volume” value ([12]; 10 mg/kg i.p. once daily for 21 days, day 31 (10 days after treatment suspended)) was 80% and the “decrease in mean tumour volume” value ([12]; 20 mg/kg i.p. once daily for 21 days, day 21 of treatment) was 85%. The “decrease in mean tumour volume” value ([12]; 20 mg/kg i.p. once daily for 21 days, day 31 (10 days after treatment suspended)) was 86%, the mean body weight ([12]; 5, 10, 20 mg/kg i.p. once daily for 21 days, any treatment group) was “negligible effect; also recorded: not significantly affected” and the IC50 [13] was 12700 nM. It also gave an IC50 [14] of 2650 nM and an IC50 [15] of 9370 nM.
